Assay results reported in ChEMBL document CHEMBL1201862, “PubChem BioAssay data set” (2004).
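Results reflect a 48-hour exposure of cells in 96-well plates to compound at five concentrations. GI50 = concentration required for 50% inhibition of growth.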 Calls of active or inactive are those of the source. No stated cut-off is given here; in the data, active = GI50 up to about 1.1 µM and inactive = higher.

Legend:
Experiment in all cases: NCI anticancer screen, dose series, 48 h
786-0 = tested on: 786-0
A498 = tested on: A498
A549 = tested on: A549
M14 = tested on: M14
MDA-MB-231 = tested on: MDA-MB-231
MDA-MB-435 = tested on: MDA-MB-435
MDA-N = tested on: MDA-N
NCI-H226 = tested on: NCI-H226
NCI/ADR-RES = tested on: NCI/ADR-RES
OVCAR-4 = tested on: OVCAR-4
RXF 393 = tested on: RXF 393
SNB-19 = tested on: SNB-19
TK-10 = tested on: TK-10
UACC-257 = tested on: UACC-257
UACC-62 = tested on: UACC-62
COLO 205 = tested on: COLO 205
IGROV-1 = tested on: IGROV-1
HT-29 = tested on: HT-29
BT-549 = tested on: BT-549

Measured: GI50

CC1(C)[C@@H](Cn2nnc3c(N)ncnc32)CC[C@@]1(C)CO
inactive: 786-0 > 100 µM | A498 > 100 µM | A549 > 100 µM | M14 > 100 µM | MDA-MB-231 > 100 µM | MDA-MB-435 > 100 µM | MDA-N > 100 µM | NCI-H226 > 100 µM | NCI/ADR-RES > 100 µM | OVCAR-4 > 100 µM | RXF 393 > 100 µM | SNB-19 > 100 µM | TK-10 > 100 µM | UACC-257 > 100 µM | UACC-62 > 100 µM

O=C(O)c1cc2cc(OCc3ccccc3)ccc2[nH]1
inactive: 786-0 > 100 µM | A498 87.5 µM | A549 > 100 µM | COLO 205 > 100 µM | IGROV-1 > 100 µM | M14 > 100 µM | MDA-MB-231 > 100 µM | MDA-MB-435 > 100 µM | MDA-N > 100 µM | NCI-H226 23.4 µM | NCI/ADR-RES > 100 µM | RXF 393 > 100 µM | SNB-19 73.6 µM | TK-10 > 100 µM | UACC-257 5.06 µM | UACC-62 > 100 µM

CN1N=C(c2ccncc2)OC1c1cccc(F)c1 (centres undefined)
inactive: 786-0 > 100 µM | A498 > 100 µM | A549 > 100 µM | COLO 205 > 100 µM | HT-29 > 100 µM | IGROV-1 > 100 µM | M14 > 100 µM | MDA-MB-231 > 100 µM | MDA-MB-435 > 100 µM | MDA-N > 100 µM | NCI-H226 68.5 µM | NCI/ADR-RES > 100 µM | OVCAR-4 > 100 µM | RXF 393 > 100 µM | SNB-19 > 100 µM | TK-10 > 100 µM | UACC-257 > 100 µM | UACC-62 > 100 µM

C=CCNC(=O)NNC(O)(C(=O)OCC)C(F)(F)F (centres undefined)
inactive: 786-0 > 100 µM | A498 > 100 µM | A549 > 100 µM | COLO 205 > 100 µM | HT-29 > 100 µM | IGROV-1 > 100 µM | M14 > 100 µM | MDA-MB-231 > 100 µM | MDA-MB-435 > 100 µM | MDA-N > 100 µM | NCI-H226 > 100 µM | NCI/ADR-RES > 100 µM | OVCAR-4 > 100 µM | RXF 393 > 100 µM | SNB-19 > 100 µM | TK-10 > 100 µM | UACC-257 > 100 µM

N=C1N(c2ccccc2)C(=S)/C(=N/c2ccccc2)N1c1ccccc1
inactive: 786-0 9.68 µM | A498 17.7 µM | A549 19.7 µM | COLO 205 3.3 µM | HT-29 4.37 µM | IGROV-1 12 µM | M14 9.46 µM | MDA-MB-231 8.73 µM | MDA-MB-435 1.92 µM | MDA-N 2.45 µM | NCI-H226 20.2 µM | NCI/ADR-RES 18.4 µM | OVCAR-4 12.7 µM | RXF 393 11.9 µM | SNB-19 16.6 µM | TK-10 15 µM | UACC-257 2.55 µM | UACC-62 5.77 µM

COP(=O)(O)C(N)Cc1c[nH]c2ccccc12 (centres undefined)
inactive: A498 > 100 µM | A549 > 100 µM | COLO 205 > 100 µM | HT-29 > 100 µM | IGROV-1 > 100 µM | M14 > 100 µM | MDA-MB-231 > 100 µM | MDA-MB-435 > 100 µM | MDA-N > 100 µM | NCI-H226 > 100 µM | NCI/ADR-RES > 100 µM | OVCAR-4 > 100 µM | SNB-19 > 100 µM | TK-10 > 100 µM | UACC-257 > 100 µM

Cc1ccc2c(c1)Nc1ccccc1P2(=O)O
inactive: 786-0 > 100 µM | A498 > 100 µM | A549 > 100 µM | COLO 205 > 100 µM | HT-29 > 100 µM | IGROV-1 > 100 µM | M14 > 100 µM | MDA-MB-231 > 100 µM | MDA-MB-435 > 100 µM | MDA-N > 100 µM | NCI-H226 > 100 µM | NCI/ADR-RES > 100 µM | OVCAR-4 > 100 µM | RXF 393 > 100 µM | SNB-19 > 100 µM | TK-10 > 100 µM | UACC-257 > 100 µM | UACC-62 > 100 µM

CN(C)/C(=N\C#N)N(Cc1ccccc1)Cc1ccccc1
inactive: 786-0 > 100 µM | A498 49 µM | A549 > 100 µM | COLO 205 74 µM | HT-29 50.9 µM | IGROV-1 > 100 µM | M14 > 100 µM | NCI-H226 > 100 µM | OVCAR-4 > 100 µM | RXF 393 42.6 µM | SNB-19 > 100 µM | TK-10 > 100 µM | UACC-257 > 100 µM | UACC-62 62.4 µM

CC[N+](CC)(CC)/C(=N\S(=O)(=O)c1ccc(Cl)cc1)[N-]S(=O)(=O)c1cc(C)c(Cl)cc1S
inactive: 786-0 > 100 µM | A498 41.9 µM | HT-29 41.7 µM | IGROV-1 > 100 µM | M14 39.3 µM | MDA-MB-231 > 100 µM | MDA-MB-435 > 100 µM | MDA-N > 100 µM | NCI-H226 32.1 µM | NCI/ADR-RES > 100 µM | OVCAR-4 65.5 µM | RXF 393 78.2 µM | TK-10 58.7 µM | UACC-257 > 100 µM

NC(=O)c1csc(CCCCCCc2nc(C(N)=O)cs2)n1
inactive: 786-0 > 45.3 µM | A498 > 100 µM | A549 > 100 µM | COLO 205 > 59.3 µM | HT-29 > 40.9 µM | IGROV-1 > 100 µM | M14 > 100 µM | NCI-H226 > 100 µM | OVCAR-4 > 57.7 µM | RXF 393 > 100 µM | SNB-19 > 100 µM | TK-10 > 100 µM | UACC-257 > 62.5 µM | UACC-62 > 100 µM

C=C1C(=O)O[C@H]2C(=O)[C@H](C)CCC[C@@](C)(O)/C=C\C[C@@]3(C)O[C@@H]3C[C@@H]12
inactive: 786-0 12.3 µM | A498 16.1 µM | A549 19 µM | COLO 205 16.2 µM | HT-29 14.8 µM | IGROV-1 20.3 µM | M14 11.3 µM | MDA-MB-231 21.7 µM | MDA-MB-435 18.5 µM | MDA-N 17.9 µM | NCI-H226 82.2 µM | NCI/ADR-RES 39.4 µM | SNB-19 35.8 µM | TK-10 4.19 µM | UACC-257 14.1 µM | UACC-62 18.4 µM

N#Cc1c(N)nc(Sc2ccccc2N)c(C#N)c1-c1ccccc1
inactive: 786-0 13.5 µM | A549 19.4 µM | BT-549 10.8 µM | COLO 205 35.7 µM | HT-29 24.5 µM | IGROV-1 16.9 µM | M14 24.2 µM | MDA-MB-231 14 µM | MDA-MB-435 23.6 µM | NCI-H226 47.2 µM | NCI/ADR-RES 11.5 µM | OVCAR-4 15.9 µM | SNB-19 29.4 µM | TK-10 11.5 µM | UACC-257 24.9 µM | UACC-62 10.3 µM

COCC1N=C(c2ccc(OC)c(OCc3ccccc3)c2OC)O[C@H]1c1ccccc1 (some centres undefined)
inactive: 786-0 29.9 µM | A498 6.19 µM | A549 24.5 µM | COLO 205 18.1 µM | HT-29 19.8 µM | IGROV-1 32.4 µM | M14 14.6 µM | NCI-H226 29 µM | OVCAR-4 20.5 µM | RXF 393 29.3 µM | SNB-19 29.9 µM | TK-10 35.2 µM | UACC-62 15.8 µM
